Laboratory results: patent publication US20250090659A1, “COMBINATION THERAPY WITH AN ANTI-CD19 ANTIBODY AND PARSACLISIB” (Incyte Corporation, priority 2020, published 2025)

B1: Tafasitamab: IgG1-G2/kappa Fc-engineered (S239D, I332E) monoclonal antibody targeting human CD19; heavy chain SEQ ID NO:2, light chain SEQ ID NO:3 (antibody)
heavy: EVQLVESGGGLVKPGGSLKLSCAASGYTFTSYVMHWVRQAPGKGLEWIGYINPYNDGTKYNEKFQGRVTISSDKSISTAYMELSSLRSEDTAMYYCARGTYYYGTRVFDYWGQGTLVTVSSASTKGPSVFPLAPSSKSTSGGTAALGCLVKDYFPEPVTVSWNSGALTSGVHTFPAVLQSSGLYSLSSVVTVPSSSLGTQTYICNVNHKPSNTKVDKKVEPKSCDKTHTCPPCPAPELLGGPDVFLFPPKPKDTLMISRTPEVTCVVVDVSHEDPEVQFNWYVDGVEVHNAKTKPREEQFNSTFRVVSVLTVVHQDWLNGKEYKCKVSNKALPAPEEKTISKTKGQPREPQVYTLPPSREEMTKNQVSLTCLVKGFYPSDIAVEWESNGQPENNYKTTPPMLDSDGSFFLYSKLTVDKSRWQQGNVFSCSVMHEALHNHYTQKSLSLSPGK
light: DIVMTQSPATLSLSPGERATLSCRSSKSLQNVNGNTYLYWFQQKPGQSPQLLIYRMSNLNSGVPDRFSGSGSGTEFTLTISSLEPEDFAVYYCMQHLEYPITFGAGTKLEIKRTVAAPSVFIFPPSDEQLKSGTASVVCLLNNFYPREAKVQWKVDNALQSGNSQESVTEQDSKDSTYSLSSTLTLSKADYEKHKVYACEVTHQGLSSPVTKSFNRGEC

What was measured:
Pfeiffer cells = experiment: Cell proliferation (Cell titer Glo), Pfeiffer; type: cell-based; settings: no NK cells, 24, 48 and 72 hours
Experimental: (§1) Besides ADCC cytotoxicity, effects of tafasitamab and parsaclisib on cell proliferation were also evaluated by treating target cells with matrix dosing of tafasitamab and parsaclisib in the absence of NK cells. After 24 hours, 48 hours, and 72 hours, proliferation was assessed by adding 100 ul of Cell titer Glo to wells containing 100 ul of treated cells in duplicates. The data was presented as RLUs, which is in proportion to cell proliferation.

WSU-NHL cells = experiment: Cell proliferation (Cell titer Glo), WSU-NHL; type: cell-based; settings: no NK cells, 24, 48 and 72 hours
Experimental: as §1

SuDHL4 cells = experiment: Cell proliferation (Cell titer Glo), SuDHL4; type: cell-based; settings: no NK cells, 24, 48 and 72 hours
Experimental: as §1

SuDHL6 cells = experiment: Cell proliferation (Cell titer Glo), SuDHL6; type: cell-based; settings: no NK cells, 24, 48 and 72 hours
Experimental: as §1

[1] = tested on: A20 murine lymphoma cells; experiment: In vivo efficacy in A20 mouse lymphoma model; parameters: species or system Balb/c mice
Experimental: Female Balb/c mice were subcutaneously inoculated with 5×10^5 A20 murine lymphoma cells to form flank tumors. When tumors reached approximately 100 mm^3, mice were randomized into 4 groups for dosing (N=10 mice/group). Dosing groups were as follows: (1) Vehicle (5% dimethyl acetimde+95% methylcellulose)-administered by mouth twice a day; (2) Murine anti-CD19 antibody (12014B35 from Absolute Antibody)—[…] administered intraperitoneally once weekly; (3) Parsaclisib (INCB050465)—3 mg/kg administered by mouth twice a day; and (4) Murine anti-CD19 antibody+Parsaclisib.
Tumor volumes were measured twice weekly. The study concluded when mean tumor volumes of each group reached 2000 mm^3. All doses were tolerated as assessed by body weights. Percent tumor growth inhibition (TGI %) was calculated by: [1-(mean tumor volume of test group)/(mean tumor volume of vehicle group)]×100. Tumor growth delay (TGD) was determined by the number of days needed (approximate) after dosing ceases for mean tumor volumes of dosed groups to reach the final mean tumor volume of the vehicle group.

Mec1 cells = experiment: ADCC assay with NK cells, Mec1 target cells; type: cell-based; settings: Mec1 cells pre-treated 7 days with parsaclisib 0.3 to 20 μM or DMSO, E:T 2:1, tafasitamab 1:10 dilutions from 1 μg/ml, 4 hours, dead target cells by flow cytometry
Experimental: (§2) The cytotoxicity of tafasitamab and parsaclisib (INCB050465) alone and in combination was tested in the following cells lines: MEC-1 (CLL), MEC-2 (CLL), JVM-2 (Mantle Cell Lymphoma), WSU-NHL, Pfeiffer, Su-DHL4, and Su-DHL6.
(§3) Target cells were pre-treated for 7 days with various doses of parsaclisib in the range of 0.3 to 20 μM (parsaclisib alone group and tafasitamab and parsaclisib combination group). The tafasitamab alone group was pre-treated with DMSO for the same period of time.
NK cells were isolated from human primary PBMC from multiple donors using EasySep™ Human NK Cell Isolation Kit (STEMCELL Technologies) and frozen. NK cells were thawed and cultured overnight in medium supplemented with 2 IU/ml of IL-2 (Peprotech) 24 hours before the ADCC assay.
The following controls were used in all experiments: (i) Target cells+NK cells without antibodies; (ii) Target cells+NK cells+huIgG1 isotype control antibody; and (iii) Target cells alone. […]
(§4) The cytotoxicity of tafasitamab alone was evaluated following the same procedure in cells that were treated with DMSO. […] After 4 hours incubation, cells were stained with Zombie Violet fixable cell viability dye (Biolegend 423114) and measured by flow cytometry to evaluate cell toxicity. […]

JVM2 cells [2] = experiment: ADCC assay with NK cells, JVM2 target cells; type: cell-based; settings: JVM2 cells pre-treated 7 days with parsaclisib 0.3 to 20 μM or DMSO, E:T 2:1, tafasitamab 1:10 dilutions from 1 μg/ml, 4 hours, dead target cells by flow cytometry
Experimental: as §2, §3
NK cells were isolated from human primary PBMC from multiple donors using EasySep™ Human NK Cell Isolation Kit (STEMCELL Technologies) and frozen. NK cells were thawed and cultured overnight in medium supplemented with 2 IU/ml of IL-2 (Peprotech) 24 hours before the ADCC assay. […]
as §4
Data from two separately conducted experiments were analyzed to assess potential synergistic activity of tafasitamab and parsaclisib in JVM2 cells. […] Synergy scores were calculated using SynergyFinder 2.0 (https://synergyfinder.fimm.fi). […]

Mec2 cells = experiment: Cell proliferation (Cell titer Glo), Mec2; type: cell-based; settings: no NK cells, 24, 48 and 72 hours
Experimental: as §1

JVM2 cells [3] = experiment: Cell proliferation (Cell titer Glo), JVM2; type: cell-based; settings: no NK cells, 24, 48 and 72 hours
Experimental: as §1

| Molecule | cell proliferation (RLUs) (Pfeiffer cells) | cell proliferation (RLUs) (WSU-NHL cells) | cell proliferation (RLUs) (SuDHL4 cells) | cell proliferation (RLUs) (SuDHL6 cells) | TGI (%) ([1]; A20 flank tumors in Balb/c mice, antibody 150 mg i.p. once weekly, parsaclisib 3 mg/kg by mouth twice a day, vs vehicle group) | TGD ([1]; approximate days after dosing ceases for mean tumor volume to reach final mean tumor volume of vehicle group) [days] | ADCC activity (Mec1 cells) | ADCC activity (JVM2 cells [2]) | cell proliferation (RLUs) (Mec2 cells) | cell proliferation (RLUs) (JVM2 cells [3]) |
| --- | --- | --- | --- | --- | --- | --- | --- | --- | --- | --- |
| CCOc1c(C(C)n2nc(C)c3c(N)ncnc32)cc(Cl)c(F)c1C1CNC(=O)C1 (stereo not drawn) [Parsaclisib, 4-{3-[1-(4-amino-3-methyl-1H-pyrazolo[3,4-d]pyrimidin-1-yl)ethyl]-5-chloro-2-ethoxy-6-fluorophenyl}pyrrolidin-2-one] | proliferation was inhibited by the treatment of parsaclisib in time and dose dependent manners | proliferation was inhibited by the treatment of parsaclisib in time and dose dependent manners | showed sensitivity to neither | showed sensitivity to neither | 26.6 | 1.4 |  |  |  |  |
| B1 |  |  | showed sensitivity to neither | showed sensitivity to neither |  |  | displayed ADCC activity in a dose dependent manner | displayed ADCC activity in a dose dependent manner | proliferation was inhibited by tafasitamab in time and dose dependent manners | proliferation was inhibited by tafasitamab in time and dose dependent manners |
